From patent publication US9340577B2, “HLA binding motifs and peptides and their uses” (priority 1992, dated 2016)
No end group written: not given here.

Legend:
Assay in all cases: biochemical
DRB3*0101 = DRB3*0101 (Homo sapiens, UniProt P01903+P79483); type: binding
DR7 (DRB1*0701) = DR7 (DRB1*0701) (Homo sapiens, UniProt P01903+P01911, A100R/A102G/A103Q/D57E/D86V/E43K/F76Y/K127E/L162R/M171V/P40G/Q125H/Q99D/R33Q/R42Y/R54Q/S133A/S66F/T210M/V115G/Y107V/Y59L/Y89S); type: binding
DRB1*1501 = DRB1*1501 (Homo sapiens, UniProt P01903+P01911); type: binding
DRB1*0901 = DRB1*0901 (Homo sapiens, UniProt P01903+P01911, A100R/A103E/D57H/D86V/F55Y/F60I/F76Y/I96F/K127E/L162R/M171V/P40D/Q125H/Q99R/R33Q/R42F/S133A/S66N/T210M/V115G/W38K/Y107V/Y59G/Y89S); type: binding
DRB1*0802 = DRB1*0802 (Homo sapiens, UniProt P01903+P01911, A100R/A103L/A169T/F76Y/H45Y/I96F/K41T/L162R/M171V/P40S/Q125H/Q178H/Q39Y/Q99D/R218S/R42G/S66Y/V115G/W38E); type: binding
DRB1*0405 = DRB1*0405 (Homo sapiens, UniProt P01903+P01911, A100R/A169T/D86S/F76Y/I96L/K127E/L162R/M171V/N62H/P40V/Q125Y/R42H/S133A/S149N/S66Y/V115G/V209L/W38E); type: binding
DRB4*0101 = DRB4*0101 (Homo sapiens, UniProt P01903+P13762, G164S); type: binding
DRB5*0101 = DRB5*0101 (Homo sapiens, UniProt P01903+Q30154)
DRB1*1302 = DRB1*1302 (Homo sapiens, UniProt P01903+P01911, A100E/A169T/K41T/L162R/M171V/P40S/Q125H/Q178H/Q39Y/Q99D/R42S/S66N/T262R/V115G/W38E/Y61H); type: binding
DR4w4 (DRB1*0401) = DR4w4 (DRB1*0401) (Homo sapiens, UniProt P01903+P01911, A100K/A169T/F76Y/I96L/K127E/L162R/M171V/N62H/P40V/Q125Y/R42H/S133A/S149N/S66Y/V115G/V209L/W38E); type: binding
DRB1*0301 = DRB1*0301 (Homo sapiens, UniProt P01903+P01911, A100K/A102G/A103R/A169T/F55Y/I96L/K41T/L162R/M171V/P40S/Q125H/Q178H/Q39Y/R42S/S66N/T106N/T262R/W38E/Y61H); type: binding
DRB1*1101 = DRB1*1101 (Homo sapiens, UniProt P01903+P01911, A100R/A169T/A87E/I96F/K41T/L162R/M171V/P40S/Q125H/Q178H/Q39Y/Q99D/R42S/S66Y/T262R/V115G/W38E)
DR1 (DRB1*0101) = DR1 (DRB1*0101) (Homo sapiens, UniProt P01903+P01911, A100R/D57E/F55L/F60I/F76Y/I96L/L162R/M171V/P40L/Q125E/R42F/V115G/Y59C); type: binding
DRB1*1201 = DRB1*1201 (Homo sapiens, UniProt P01903+P01911, A100R/A169T/D57E/D86V/F55L/H45Y/K41T/L162R/M171V/P40S/Q125H/Q178H/Q39Y/Q99D/R42G/S66L/T262R/V114A/V67L/W38E/Y59H/Y61H/Y89S); type: binding

DRB1*0301, sequence (P01903 26-254 limits assumed, other chains not shown): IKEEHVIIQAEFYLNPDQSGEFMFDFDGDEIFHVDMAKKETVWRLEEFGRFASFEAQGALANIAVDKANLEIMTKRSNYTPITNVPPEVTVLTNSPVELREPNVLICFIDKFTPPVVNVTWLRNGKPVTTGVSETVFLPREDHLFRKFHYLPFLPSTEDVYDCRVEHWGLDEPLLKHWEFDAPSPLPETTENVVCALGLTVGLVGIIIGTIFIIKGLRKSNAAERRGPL
DRB1*1101, sequence (P01903 26-254 limits assumed, other chains not shown): as above
DRB1*1302, sequence (P01903 26-254 limits assumed, other chains not shown): as above

| Compound | IC50 (DRB3*0101) | IC50 (DR7 (DRB1*0701)) | IC50 (DRB1*1501) | IC50 (DRB1*0901) | IC50 (DRB1*0802) | IC50 (DRB1*0405) | IC50 (DRB4*0101) | IC50 (DRB5*0101; Binding affinity DRB5 *0101) | IC50 (DRB1*1302) | IC50 (DR4w4 (DRB1*0401)) | IC50 (DRB1*0301) | IC50 (DRB1*1101; Binding affinity DRB1 *1101) | IC50 (DR1 (DRB1*0101)) | IC50 (DRB1*1201) | IC50 (DRB5*0101; DRB5*0101) | IC50 (DRB1*1101; DRB1*1101) |
| --- | --- | --- | --- | --- | --- | --- | --- | --- | --- | --- | --- | --- | --- | --- | --- | --- |
| CC[C@H](C)[C@H](NC(=O)[C@H](C)NC(=O)[C@H](CCCCN)NC(=O)[C@H](Cc1c[nH]cn1)NC(=O)[C@H](C)NC(=O)[C@H](CCCCN)NC(=O)[C@H](CO)NC(=O)[C@H](CCCCN)NC(=O)[C@H](CO)NC(=O)[C@@H](NC(=O)[C@H](CC(N)=O)NC(=O)[C@@H](NC(=O)[C@@H]1CCCN1)[C@@H](C)CC)[C@@H](C)CC)C(=O)N[C@@H](CCC(=O)O)C(=O)N[C@@H](CC(C)C)C(=O)O [Peptide 1601.30] | > 20000 nM | – | – | – | – | – | – | – | – | – | – | – | – | – | – | – |
| CC[C@H](C)[C@H](NC(=O)CNC(=O)[C@H](CCC(N)=O)NC(=O)[C@H](CC(C)C)NC(=O)[C@@H](NC(=O)CNC(=O)[C@H](CC(N)=O)NC(=O)[C@H](CS)NC(=O)[C@@H](NC(=O)[C@H](CC(C)C)NC(=O)[C@@H]1CCCN1C(=O)CNC(=O)CN)C(C)C)C(C)C)C(=O)N[C@H](C(=O)N[C@@H](CO)C(=O)O)[C@@H](C)O [Peptide 68.0079] | > 20000 nM | > 20000 nM | > 20000 nM | – | – | – | – | – | – | – | – | – | – | – | – | – |
| CC[C@H](C)[C@H](NC(=O)[C@H](Cc1c[nH]cn1)NC(=O)[C@H](CCSC)NC(=O)[C@H](CCCCN)NC(=O)[C@@H](NC(=O)[C@H](CCCCN)NC(=O)[C@H](CCC(N)=O)NC(=O)[C@@H](NC(=O)[C@H](CO)NC(=O)[C@H](Cc1ccccc1)NC(=O)[C@H](CC(N)=O)NC(=O)CNC(=O)[C@@H](N)[C@@H](C)O)[C@@H](C)O)C(C)C)C(=O)N[C@@H](Cc1c[nH]cn1)C(=O)N[C@@H](CO)C(=O)O [Peptide 68.0105] | > 20000 nM | – | – | – | – | – | – | – | – | – | – | – | – | – | – | – |
| NGWFYVEAVIDRQTG [Peptide 90.0062] | – | 157 nM | > 20000 nM | 453 nM | 3990 nM | 12 nM | 14 nM | 558 nM | 4870 nM | 69 nM | 241 nM | 3350 nM | 157 nM | 4040 nM | – | – |
| CC[C@H](C)[C@H](NC(=O)CNC(=O)[C@H](Cc1ccc(O)cc1)NC(=O)[C@H](CC(C)C)NC(=O)[C@H](CO)NC(=O)[C@H](CC(C)C)NC(=O)[C@H](CC(C)C)NC(=O)[C@H](CO)NC(=O)[C@H](CC(C)C)NC(=O)[C@H](CCC(=O)O)NC(=O)[C@H](CO)NC(=O)[C@H](CC(C)C)NC(=O)[C@H](CCC(=O)O)NC(=O)[C@H](CCCNC(=N)N)NC(=O)[C@@H](N)CC(C)C)C(=O)O [Peptide 68.0043] | > 20000 nM | – | – | – | – | – | – | – | – | – | – | – | – | – | – | – |
| ETCMVIEPPKLRSQT [Peptide 90.0083] | – | 794 nM | 670 nM | > 20000 nM | 4300 nM | 2280 nM | 16 nM | 124 nM | > 20000 nM | 1550 nM | 275 nM | 4740 nM | 26 nM | 825 nM | – | – |
| DWCVAAFGVTGTVAE [Peptide 89.0042] | – | 349 nM | 64 nM | 901 nM | 3500 nM | 184 nM | 601 nM | 8660 nM | > 20000 nM | 294 nM | > 20000 nM | 3230 nM | 11 nM | > 20000 nM | – | – |
| CC(C)C[C@H](NC(=O)[C@H](CC(=O)O)NC(=O)[C@H](CCCCN)NC(=O)[C@H](Cc1ccccc1)NC(=O)[C@H](C)NC(=O)[C@H](Cc1ccccc1)NC(=O)[C@H](CCC(=O)O)NC(=O)[C@H](Cc1ccccc1)NC(=O)[C@@H](NC(=O)[C@@H](N)CCC(=O)O)C(C)C)C(=O)N[C@@H](Cc1ccccc1)C(=O)N[C@H](C(=O)N[C@H](C(=O)N[C@@H](Cc1ccc(O)cc1)C(=O)N[C@@H](CCCNC(=N)N)C(=O)O)C(C)C)C(C)C [Peptide 1543.35] | > 20000 nM | – | – | > 20000 nM | – | – | – | > 20000 nM | – | – | – | – | – | – | – | – |
| ISEVMGDTPEWIQRL [Peptide 90.0052] | – | 4020 nM | 6830 nM | > 20000 nM | > 20000 nM | 4110 nM | 2040 nM | > 20000 nM | 9 nM | > 20000 nM | 55 nM | > 20000 nM | 2880 nM | > 20000 nM | – | – |
| FQVIELQMALETLNA [Peptide 90.0025] | – | 2650 nM | 449 nM | 1970 nM | > 20000 nM | 2490 nM | 15 nM | > 20000 nM | 187 nM | 75 nM | 743 nM | 3990 nM | 20 nM | 708 nM | – | – |
| QWAYDNDIVDDSEIA [Peptide 90.0036] | – | > 20000 nM | > 20000 nM | > 20000 nM | > 20000 nM | 4260 nM | > 20000 nM | > 20000 nM | > 20000 nM | 11800 nM | 990 nM | > 20000 nM | > 20000 nM | > 20000 nM | – | – |
| YIVMSDWTGGA [Peptide 510.33] | > 33300 nM | – | – | – | – | – | – | – | – | – | – | – | – | – | > 10000 nM | > 6670 nM |
| TPEWIQRLTIIQHGI [Peptide 89.0030] | – | 155 nM | 17600 nM | 2430 nM | 374 nM | 204 nM | 6.8 nM | 5890 nM | 413 nM | 190 nM | > 20000 nM | 389 nM | 669 nM | 418 nM | – | – |
| FKKFLKGIPKKSCML [Peptide 89.0073] | – | 2090 nM | 508 nM | 2480 nM | 320 nM | 17500 nM | 2220 nM | 66 nM | 2660 nM | 452 nM | > 20000 nM | 64 nM | 20 nM | 709 nM | – | – |
